Here are results for 23 compounds from PMC6467542 (Bioorganic & Medicinal Chemistry, 2019).

In brackets after ≈: the same amount, converted by molar mass.

The test system of the first data set is M. tb (strain H37Rv). The data set is described as follows: MIC90 against replicating M.tb (MABA). In kind it is cell-based, Mycobacterium tuberculosis. The conditions noted are these: Mycobacterium tuberculosis, aerobic (replicating) conditions, 90% inhibition of growth.
With `COc1cccc(C(c2cc3cc(Br)ccc3nc2OC)C(O)(CCN(C)C)c2cccc(C)n2)c1OC` (centres unmarked) [Compound 2], the MIC90 – broadly, an inhibitory concentration at the 90% level, which refers to growth in some studies and to a panel of isolates in others – is 0.4 µg/mL (≈ 0.689 µM).

As to `COc1cccc(C(c2cc3cc(C#N)ccc3nc2OC)C(O)(CCN(C)C)c2cccc(C)n2)c1OC` (centres unmarked) [Compound 3], the MIC90 came to 4.1 µg/mL (≈ 7.79 µM).

Compound `COc1cccc(C(c2cc3cc(Br)ccc3nc2OC)C(O)(CCN(C)C)c2cccc(C)n2)c1F` (centres unmarked) [Compound 4] gave an MIC90 of 0.29 µg/mL (≈ 0.51 µM).

For the compound `COc1cccc(C(c2cc3cc(C#N)ccc3nc2OC)C(O)(CCN(C)C)c2cccc(C)n2)c1F` (centres unmarked) [Compound 5], the MIC90 turned out to be 1.1 µg/mL (≈ 2.14 µM).

`COc1cccc(C(c2cc3cc(Br)ccc3nc2OC)C(O)(CCN(C)C)c2cc(C)ccn2)c1F` (centres unmarked) [Compound 6] showed an MIC90 of 0.6 µg/mL (≈ 1.06 µM).

Compound `COc1cccc(C(c2cc3cc(Br)ccc3nc2OC)C(O)(CCN(C)C)c2ncccc2C)c1F` (centres unmarked) [Compound 7] showed an MIC90 of 0.19 µg/mL (≈ 0.334 µM).

Compound `COc1cccc(C(c2cc3cc(C#N)ccc3nc2OC)C(O)(CCN(C)C)c2ncccc2C)c1F` (centres unmarked) [Compound 8] showed an MIC90 of 3 µg/mL (≈ 5.83 µM).

As to `COc1cccc(C(c2cc3cc(Br)ccc3nc2OC)C(O)(CCN(C)C)c2cc(C)cc(C)n2)c1OC` (centres unmarked) [Compound 9], the MIC90 worked out at 0.28 µg/mL (≈ 0.471 µM).

`COc1cccc(C(c2cc3cc(C#N)ccc3nc2OC)C(O)(CCN(C)C)c2cc(C)cc(C)n2)c1OC` (centres unmarked) [Compound 10] displayed an MIC90 of 0.54 µg/mL (≈ 0.999 µM).

In turn, `COc1cccc(C(c2cc3cc(Br)ccc3nc2OC)C(O)(CCN(C)C)c2cc(C)cc(C)n2)c1F` (centres unmarked) [Compound 11] registered an MIC90 of 0.14 µg/mL (≈ 0.24 µM).

`COc1cccc(C(c2cc3cc(C#N)ccc3nc2OC)C(O)(CCN(C)C)c2cc(C)cc(C)n2)c1F` (centres unmarked) [Compound 12] gave an MIC90 of 2.3 µg/mL (≈ 4.35 µM).

`COc1cccc(C(c2cc3cc(Br)ccc3nc2OC)C(O)(CCN(C)C)c2ncc(C)cc2C)c1F` (centres unmarked) [Compound 13] displayed an MIC90 of 0.3 µg/mL (≈ 0.515 µM).

Consider `COc1cccc(C(O)(CCN(C)C)C(c2cccc(C)c2)c2cc3cc(C#N)ccc3nc2OC)n1` (centres unmarked) [Compound 14], for which the MIC90 is 0.6 µg/mL (≈ 1.21 µM).

`COc1cccc(C(O)(CCN(C)C)C(c2cc3cc(C#N)ccc3nc2OC)c2cccc3c2OCO3)n1` (centres unmarked) [Compound 16]: the MIC90 stood at 1.2 µg/mL (≈ 2.28 µM).

Turning to `COc1ccnc(C(O)(CCN(C)C)C(c2cc3cc(Br)ccc3nc2OC)c2cccc(OC)c2F)c1` (centres unmarked) [Compound 17], the MIC90 is 1.2 µg/mL (≈ 2.05 µM).

Turning to `COc1ccnc(C(O)(CCN(C)C)C(c2cc3cc(C#N)ccc3nc2OC)c2cccc(OC)c2F)c1` (centres unmarked) [Compound 18], the MIC90 was 2.3 µg/mL (≈ 4.33 µM).

Regarding `COc1cccc(C(c2cc3cc(Br)ccc3nc2OC)C(O)(CCN(C)C)c2cccnc2C)c1OC` (centres unmarked) [Compound 20], the MIC90 turned out to be 0.3 µg/mL (≈ 0.517 µM).

As to `COc1cccc(C(c2cc3cc(C#N)ccc3nc2OC)C(O)(CCN(C)C)c2ccc(C)nc2)c1F` (centres unmarked) [Compound 23], the MIC90 came out at 4.7 µg/mL (≈ 9.13 µM).

In turn, `COc1cccc(C(c2cc3cc(Br)ccc3nc2OC)C(O)(CCN(C)C)c2ccc(C)nc2)c1OC` (centres unmarked) [Compound 24] showed an MIC90 of 0.6 µg/mL (≈ 1.03 µM).

The compound `COc1cccc(C(c2cc3cc(C#N)ccc3nc2OC)C(O)(CCN(C)C)c2ccc(C)nc2)c1OC` (centres unmarked) [Compound 25] returned an MIC90 greater than 5 µg/mL.

`COc1nc2ccc(Br)cc2cc1C(c1cccc(F)c1)C(O)(CCN(C)C)c1cncc(C)c1` (centres unmarked) [Compound 26]: the MIC90 amounted to 0.28 µg/mL (≈ 0.52 µM).

`COc1nc2ccc(C#N)cc2cc1C(c1cccc(F)c1)C(O)(CCN(C)C)c1cncc(C)c1` (centres unmarked) [Compound 27]: the MIC90 was 1.2 µg/mL (≈ 2.48 µM).

`COc1cccc(C(c2cc3cc(Br)ccc3nc2OC)C(O)(CCN(C)C)c2cncc(C)c2)c1OC` (centres unmarked) [Compound 28] registered an MIC90 of 0.3 µg/mL (≈ 0.517 µM).

System in the next data set: not listed separately
The data set is described as follows: in vitro. The conditions noted are these: human, microsomes.
Turning to `COc1cccc(C(c2cc3cc(Br)ccc3nc2OC)C(O)(CCN(C)C)c2cccc(C)n2)c1F` (centres unmarked) [Compound 4], the microsomal CLint (commonly the rate of metabolic loss divided by the concentration) is 10 µL/min/mg.

On to `COc1nc2ccc(C#N)cc2cc1C(c1cccc(F)c1)C(O)(CCN(C)C)c1cncc(C)c1` (centres unmarked) [Compound 27], for which the microsomal CLint was 122 µL/min/mg.

The test system of the next data set is M. tb (strain H37Rv). The data set is described as follows: MIC90 against non-replicating M.tb (LORA). Type of data set: cell-based, Mycobacterium tuberculosis. As to conditions: Mycobacterium tuberculosis, H37RV, read-out: MIC90 LORA. Here is the method: In these assays, 1 is a potent inhibitor, with MICs of 0.08 and 0.12 µg/mL, respectively. Replacement of the naphthalene C-unit of 1 with various pyridyls produced analogues of considerably lower lipophilicity, with clogP values ranging from 6.89 down to 2.98.
Turning to `COc1cccc(C(c2cc3cc(Br)ccc3nc2OC)C(O)(CCN(C)C)c2cccc(C)n2)c1OC` (centres unmarked) [Compound 2], the MIC90 is 0.13 µg/mL (≈ 0.224 µM).

On to `COc1cccc(C(c2cc3cc(C#N)ccc3nc2OC)C(O)(CCN(C)C)c2cccc(C)n2)c1OC` (centres unmarked) [Compound 3], for which the MIC90 was 1.9 µg/mL (≈ 3.61 µM).

`COc1cccc(C(c2cc3cc(Br)ccc3nc2OC)C(O)(CCN(C)C)c2cccc(C)n2)c1F` (centres unmarked) [Compound 4]: the MIC90 stood at 2 µg/mL (≈ 3.52 µM).

Take `COc1cccc(C(c2cc3cc(C#N)ccc3nc2OC)C(O)(CCN(C)C)c2cccc(C)n2)c1F` (centres unmarked) [Compound 5]: the MIC90 is 1.8 µg/mL (≈ 3.5 µM).

With `COc1cccc(C(c2cc3cc(Br)ccc3nc2OC)C(O)(CCN(C)C)c2cc(C)ccn2)c1F` (centres unmarked) [Compound 6], the MIC90 came to 2.1 µg/mL (≈ 3.69 µM).

Turning to `COc1cccc(C(c2cc3cc(Br)ccc3nc2OC)C(O)(CCN(C)C)c2ncccc2C)c1F` (centres unmarked) [Compound 7], the MIC90 turned out to be 0.4 µg/mL (≈ 0.704 µM).

Turning to `COc1cccc(C(c2cc3cc(C#N)ccc3nc2OC)C(O)(CCN(C)C)c2ncccc2C)c1F` (centres unmarked) [Compound 8], the MIC90 came to 3.5 µg/mL (≈ 6.8 µM).

In the case of `COc1cccc(C(c2cc3cc(Br)ccc3nc2OC)C(O)(CCN(C)C)c2cc(C)cc(C)n2)c1OC` (centres unmarked) [Compound 9], the MIC90 was found to be 0.3 µg/mL (≈ 0.505 µM).

On to `COc1cccc(C(c2cc3cc(C#N)ccc3nc2OC)C(O)(CCN(C)C)c2cc(C)cc(C)n2)c1OC` (centres unmarked) [Compound 10], for which the MIC90 worked out at 0.62 µg/mL (≈ 1.15 µM).

For `COc1cccc(C(c2cc3cc(Br)ccc3nc2OC)C(O)(CCN(C)C)c2cc(C)cc(C)n2)c1F` (centres unmarked) [Compound 11], the MIC90 stood at 0.11 µg/mL (≈ 0.189 µM).

`COc1cccc(C(c2cc3cc(C#N)ccc3nc2OC)C(O)(CCN(C)C)c2cc(C)cc(C)n2)c1F` (centres unmarked) [Compound 12]: the MIC90 is 2.8 µg/mL (≈ 5.3 µM).

Turning to `COc1cccc(C(c2cc3cc(Br)ccc3nc2OC)C(O)(CCN(C)C)c2ncc(C)cc2C)c1F` (centres unmarked) [Compound 13], the MIC90 was determined as 0.46 µg/mL (≈ 0.79 µM).

Regarding `COc1cccc(C(O)(CCN(C)C)C(c2cccc(C)c2)c2cc3cc(C#N)ccc3nc2OC)n1` (centres unmarked) [Compound 14], the MIC90 was determined as 0.29 µg/mL (≈ 0.584 µM).

With `COc1ccnc(C(O)(CCN(C)C)C(c2cc3cc(Br)ccc3nc2OC)c2cccc(OC)c2F)c1` (centres unmarked) [Compound 17], the MIC90 stood at 0.61 µg/mL (≈ 1.04 µM).

With `COc1ccnc(C(O)(CCN(C)C)C(c2cc3cc(C#N)ccc3nc2OC)c2cccc(OC)c2F)c1` (centres unmarked) [Compound 18], the MIC90 was 2.2 µg/mL (≈ 4.15 µM).

Regarding `COc1cccc(C(c2cc3cc(Br)ccc3nc2OC)C(O)(CCN(C)C)c2cccnc2C)c1OC` (centres unmarked) [Compound 20], the MIC90 was 0.59 µg/mL (≈ 1.02 µM).

In the case of `COc1cccc(C(c2cc3cc(C#N)ccc3nc2OC)C(O)(CCN(C)C)c2ccc(C)nc2)c1F` (centres unmarked) [Compound 23], the MIC90 is greater than 5 µg/mL.

For the compound `COc1cccc(C(c2cc3cc(Br)ccc3nc2OC)C(O)(CCN(C)C)c2ccc(C)nc2)c1OC` (centres unmarked) [Compound 24], the MIC90 is 0.51 µg/mL (≈ 0.879 µM).

Consider `COc1nc2ccc(Br)cc2cc1C(c1cccc(F)c1)C(O)(CCN(C)C)c1cncc(C)c1` (centres unmarked) [Compound 26], for which the MIC90 turned out to be 0.08 µg/mL (≈ 0.149 µM).

As to `COc1nc2ccc(C#N)cc2cc1C(c1cccc(F)c1)C(O)(CCN(C)C)c1cncc(C)c1` (centres unmarked) [Compound 27], the MIC90 came to 0.98 µg/mL (≈ 2.02 µM).

`COc1cccc(C(c2cc3cc(Br)ccc3nc2OC)C(O)(CCN(C)C)c2cncc(C)c2)c1OC` (centres unmarked) [Compound 28]: the MIC90 is 0.57 µg/mL (≈ 0.982 µM).

The next data set deals with hERG potassium channel (Homo sapiens, UniProt Q12809). The data set is described as follows: Inhibition of hERG potassium current (patch clamp electrophysiology). The conditions noted are these: 1 µM; manual assay. (In general: The hERG channel carries a current that helps repolarise heart muscle cells.)
hERG potassium channel, sequence (Q12809 whole entry): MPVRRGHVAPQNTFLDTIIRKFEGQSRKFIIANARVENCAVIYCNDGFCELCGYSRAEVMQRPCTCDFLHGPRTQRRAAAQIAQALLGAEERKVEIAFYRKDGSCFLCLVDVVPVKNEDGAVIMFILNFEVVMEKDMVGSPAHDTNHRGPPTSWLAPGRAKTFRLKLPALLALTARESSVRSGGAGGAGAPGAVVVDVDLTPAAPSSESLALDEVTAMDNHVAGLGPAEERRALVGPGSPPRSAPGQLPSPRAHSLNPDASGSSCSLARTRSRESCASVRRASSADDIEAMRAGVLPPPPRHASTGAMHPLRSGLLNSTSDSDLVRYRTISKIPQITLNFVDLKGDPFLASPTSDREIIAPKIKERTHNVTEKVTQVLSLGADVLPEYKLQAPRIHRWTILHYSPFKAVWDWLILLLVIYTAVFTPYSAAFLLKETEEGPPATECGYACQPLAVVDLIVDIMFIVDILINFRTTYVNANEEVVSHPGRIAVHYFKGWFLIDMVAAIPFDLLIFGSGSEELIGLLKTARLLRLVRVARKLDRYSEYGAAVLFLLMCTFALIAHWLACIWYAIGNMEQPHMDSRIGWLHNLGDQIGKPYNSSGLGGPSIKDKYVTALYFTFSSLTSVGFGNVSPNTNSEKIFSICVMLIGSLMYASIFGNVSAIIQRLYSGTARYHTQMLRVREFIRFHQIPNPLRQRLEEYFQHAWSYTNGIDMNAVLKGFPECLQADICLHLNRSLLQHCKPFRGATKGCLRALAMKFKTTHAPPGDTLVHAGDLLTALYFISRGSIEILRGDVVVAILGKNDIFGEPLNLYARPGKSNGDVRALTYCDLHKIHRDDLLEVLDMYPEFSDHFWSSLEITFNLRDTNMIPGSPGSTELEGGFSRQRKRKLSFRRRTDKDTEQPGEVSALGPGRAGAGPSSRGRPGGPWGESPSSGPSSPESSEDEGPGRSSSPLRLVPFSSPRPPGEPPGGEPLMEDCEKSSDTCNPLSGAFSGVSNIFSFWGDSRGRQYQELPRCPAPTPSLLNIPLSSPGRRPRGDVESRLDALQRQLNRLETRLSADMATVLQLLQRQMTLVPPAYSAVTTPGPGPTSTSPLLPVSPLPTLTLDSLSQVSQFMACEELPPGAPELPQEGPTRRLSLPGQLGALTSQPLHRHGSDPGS
On to `COc1nc2ccc(C#N)cc2cc1C(c1cccc(F)c1)C(O)(CCN(C)C)c1cncc(C)c1` (centres unmarked) [Compound 27], for which the “hERG % inhibition at 1 µM” value came to 42%/1.

The same data set, now with this note: 3 µM; manual or (less accurate) QPatch assay.
For the compound `COc1cccc(C(c2cc3cc(Br)ccc3nc2OC)C(O)(CCN(C)C)c2cccc(C)n2)c1F` (centres unmarked) [Compound 4], the “hERG % inhibition at 3 µM” value is listed as 34%/3.

System in a further data set: not listed separately
The data set is described as follows: in vitro. The conditions noted are these: mouse, microsomes.
As for `COc1cccc(C(c2cc3cc(Br)ccc3nc2OC)C(O)(CCN(C)C)c2cccc(C)n2)c1F` (centres unmarked) [Compound 4], the microsomal CLint turned out to be 39 µL/min/mg.

For the compound `COc1nc2ccc(C#N)cc2cc1C(c1cccc(F)c1)C(O)(CCN(C)C)c1cncc(C)c1` (centres unmarked) [Compound 27], the microsomal CLint was 249 µL/min/mg.
